Measured values taken from US11066369B2, “N-(pyridin-2-yl)pyridine-sulfonamide derivatives and their use in the treatment of disease” (Novartis AG, priority 2016, dated 2021).
Where a name gives a salt, the structure may show the parent alone.

Columns and labels:
[1] = biological target: T1, delF508-CFTR (Homo sapiens, UniProt P13569, DEL508-508); test: Measurement of delF508-CFTR functional activity in primary human bronchial epithelial cells (HBECs) using Multi-Transepithelial Clamp Circuit (MTECC-24) assay; format: cell-based; settings: primary CF HBECs; for MTECC24 CFHBEC- Amax %: test compound added 24h before assay plus potentiator, relative to reference combination (2 μM corrector + 0.5 μM potentiator); for EC50: test compound added 24h before assay, in the presence of potentiator, mean of at least two replicates, read-out: MTECC24 CFHBEC- EC50
T1 construct: functional activity of the CFTR channel (Chloride ion transport) in patient derived primary human bronchial epithelial cells; host or cells: patient-derived primary human bronchial epithelial cells (delF508-CFTR)
T1 sequence (P13569 with tags, fused parts or gaps DEL508-508): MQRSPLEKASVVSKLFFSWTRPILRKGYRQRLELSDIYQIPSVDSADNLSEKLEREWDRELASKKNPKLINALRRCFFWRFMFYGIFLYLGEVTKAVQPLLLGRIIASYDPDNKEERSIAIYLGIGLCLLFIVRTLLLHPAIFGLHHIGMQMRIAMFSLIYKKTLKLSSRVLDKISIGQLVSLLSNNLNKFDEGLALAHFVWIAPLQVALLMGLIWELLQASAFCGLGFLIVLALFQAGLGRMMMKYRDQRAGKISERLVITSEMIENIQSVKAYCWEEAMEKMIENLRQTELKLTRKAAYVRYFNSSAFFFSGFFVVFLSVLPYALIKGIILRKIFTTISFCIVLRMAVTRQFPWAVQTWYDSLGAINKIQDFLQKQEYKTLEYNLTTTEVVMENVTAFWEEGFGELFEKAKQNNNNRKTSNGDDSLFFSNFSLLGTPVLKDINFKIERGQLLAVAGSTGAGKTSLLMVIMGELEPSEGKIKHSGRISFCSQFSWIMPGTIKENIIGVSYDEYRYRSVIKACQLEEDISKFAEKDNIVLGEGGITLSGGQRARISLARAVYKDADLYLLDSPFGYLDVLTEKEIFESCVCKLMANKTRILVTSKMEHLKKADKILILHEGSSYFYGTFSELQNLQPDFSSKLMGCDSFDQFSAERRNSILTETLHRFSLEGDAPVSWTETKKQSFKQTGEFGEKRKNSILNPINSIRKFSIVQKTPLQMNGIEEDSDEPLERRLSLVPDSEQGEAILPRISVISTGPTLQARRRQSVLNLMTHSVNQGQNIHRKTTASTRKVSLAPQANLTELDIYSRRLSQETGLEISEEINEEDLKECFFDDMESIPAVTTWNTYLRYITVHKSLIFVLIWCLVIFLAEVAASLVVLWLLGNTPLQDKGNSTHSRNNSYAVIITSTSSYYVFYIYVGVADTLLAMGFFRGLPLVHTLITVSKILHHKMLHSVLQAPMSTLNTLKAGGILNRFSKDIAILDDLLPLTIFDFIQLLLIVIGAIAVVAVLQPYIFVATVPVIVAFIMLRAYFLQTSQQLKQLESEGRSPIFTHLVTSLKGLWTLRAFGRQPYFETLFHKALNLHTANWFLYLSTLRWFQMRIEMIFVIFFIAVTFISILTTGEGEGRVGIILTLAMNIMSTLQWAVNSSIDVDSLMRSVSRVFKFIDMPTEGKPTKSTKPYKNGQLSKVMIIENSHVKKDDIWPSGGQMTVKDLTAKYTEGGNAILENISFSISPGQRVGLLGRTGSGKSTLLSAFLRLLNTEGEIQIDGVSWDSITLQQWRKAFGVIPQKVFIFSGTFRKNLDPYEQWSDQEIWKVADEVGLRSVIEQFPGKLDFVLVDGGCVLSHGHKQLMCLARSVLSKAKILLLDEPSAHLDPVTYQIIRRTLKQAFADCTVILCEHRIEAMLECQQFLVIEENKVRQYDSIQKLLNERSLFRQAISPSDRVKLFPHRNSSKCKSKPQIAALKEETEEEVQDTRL
Source text: [formula] Measurement of delF508-CFTR Functional Activity in Primary Human Bronchial Epithelial Cells (HBECs) Using Multi-Transepithelial Clamp Circuit (MTECC-24) Assay
This assay measures the functional activity of the CFTR channel (Chloride ion transport) in patient derived primary human bronchial epithelial cells with forskolin activation and in the presence of the CFTR corrector/potentiator combo.
Primary human delF508-CFTR bronchial epithelial cells were purchased from Asterand and cultured according to previously established methods (Fulcher et al. (2005) Methods Mol Med 107: 183-206). Briefly, vendor supplied cells were rapidly defrosted and added to a T175 flask in 50 mL growth media (Lonza BEBM media with Lonza BEGM singlequots). Media was replaced after 24h and then cells were fed every other day until cells were 80-90% confluent, at which point cells were cryopreserved. These P1 vials were thawed at 37° C. as needed and added to T175 flasks in 50 mL growth media at 5×10^5 cells/flask. Media was replaced after 24h, and then cells were fed every other day until 80-90% confluent. Cells were lifted with 5 mL accutase at 37° C. for 5 minutes, centrifuged at 1000 rpms for 5 min (300 g), and resuspended in differentiation media (50% BEBM in DMEM, BEGM singlequots, all trans retinoic acid (5×10^−8M)). Cells were then counted and cell suspension was added to collagen coated inserts at 3×10^4 cells/insert in 0.15 mL with 0.5 mL differentiation media on the basolateral side.
Apical and basolateral media were replaced on alternate days, and following day 7 (or when confluent plus 2 days), air liquid interface was established for approximately two weeks by removal of apical media. One day prior to use on the MTECC24 system (EP-Devices, EP Design, Belgium), 0.15 mL of warmed (37° C.) PBS was added to the apical surface of the cultures and returned to humidifier (37° C., 5% CO2 incubator) for 30 min before aspirating the apical surface to remove any mucus.
Compound treatments were then prepared. Compound dilutions, typically a 10 point concentration response with 1 in 3 dilution steps, were made in 100% DMSO before dilution 1 in 1000 into differentiation medium with a final DMSO concentration of 0.1% or 0.2% for the study. Compound containing medium was then transferred into the wells of a 24 well plate at 0.5 mL per well and warmed for 30 min in a 37° C. incubator prior to transferring washed inserts into the compound containing plates. Cells were incubated in compound containing medium (basolateral only) for 24h prior to measurement in the MTECC24 system.
Following 24 hr treatment, compound dilutions were prepared again, diluted 1 in 1000 into 37° C. assay medium (F-12 Coon's modified, 20 mM HEPES pH7.4 with TRIS Base, No FCS or bicarbonate). Cells which were treated for 24h with test compound were then transferred into plates containing 0.75 mL compound treatment in assay medium (basolateral) and 0.25 mL of the compound containing assay medium was added to the apical surface. The plates were then transferred to the heated plate compartments of the MTECC24 system for 45 min prior to measurements (this can also be done in a non-CO2 37° C. humidified incubator). Basolateral temperature should not exceed 36.5° C. and apical temperature should be approximately 35.5° C.
Modulators were added sequentially as follows while the MTECC24 instrument recorded the equivalent short circuit current (Ieq):
Prior to dilution into F-12 medium the stocks are as follows:
Amiloride stock is 10 mM in H2O
Forskolin Stock is 10 mM in 100% DMSO
(S)-3-amino-6-methoxy-N-(3,3,3-trifluoro-2-hydroxy-2-methylpropyl)-5-(trifluoromethyl)picolinamide is 0.5 mM stock in 100% DMSO
INH-172 (4-[[4-Oxo-2-thioxo-3-[3-trifluoromethyl)phenyl]-5-thiazolidinylidene]methyl]benzoic acid) stock is 30 mM in 100% DMSO
The data was normalized using the median signal from wells treated with 0.1% DMSO as a baseline. […]

[2] = biological target: T2, horseradish peroxidase (HRP) tagged delF508-CFTR (Homo sapiens, UniProt P13569, DEL508-508); test: Measurement of delF508-CFTR-HRP surface expression in CFBE41o- cells; format: cell-based; settings: delF508-CFTR-HRP surface expression, CFBE41o- cells; for EC50: read-out: DelF508-CFTR-HRP EC50; for Emax: read-out: DelF508-CFTR-HRP Amax %;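 on DelF508-CFTR-HRP Amax %: percent efficacy relative to reference corrector lumacaftor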
T2 construct: expressed in transfected cells
T2 sequence (P13569 with tags, fused parts or gaps DEL508-508): as above
Summary of the method: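 Surface-trafficked delF508-CFTR detected via extracellular HRP tag, read as luminescence from a membrane-impermeant substrate in CFBE41o- cells. Cells pre-induced 48h with 500 ng/mL doxycycline, then exposed 24h at 37° C to a 10-point, 3-fold dilution series from 10 μM (DMSO ≤0.5%). Triplicate dose-responses fitted logistically for EC50 after per-plate normalization; fold change versus reference compound.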

Row | MTECC24 CFHBEC- Amax % [1] [%] | EC50 [1] [nM] | EC50 [2] [nM] | Emax [2] [%] | Structure (SMILES)
1 | 78.8 | 92 | 2560 | 634 | Cc1ccccc1-c1nc(NS(=O)(=O)c2cccc(N3CCN(C4COC4)CC3)n2)ccc1C(F)(F)F [Example 187, 6-(4-(oxetan-3-yl)piperazin-1-yl)-N-(6-(o-tolyl)-5-(trifluoromethyl)pyridin-2-yl)pyridine-2-sulfonamide]
2 | 50.8 | 342 | 2900 | 401 | Cc1ccccc1-c1nc(NS(=O)(=O)c2cccc(N3CCN[C@@H](CO)C3)n2)ccc1C(F)(F)F [Example 165, (R)-6-(3-(hydroxymethyl)piperazin-1-yl)-N-(6-(o-tolyl)-5-(trifluoromethyl)pyridin-2-yl)pyridine-2-sulfonamide hydrochloride]
3 | 72.2 | 111 | 1990 | 756 | Cc1ccccc1-c1nc(NS(=O)(=O)c2cccc(N3CC4C(N)C4C3)n2)ccc1C(F)(F)F (centres unmarked) [Example 107, 6-(6-amino-3-azabicyclo[3.1.0]hexan-3-yl)-N-(6-(o-tolyl)-5-(trifluoromethyl)pyridin-2-yl)pyridine-2-sulfonamide Hydrochloride]
4 | 85.8 | 80.2 | 1900 | 266 | Cc1ccccc1-c1nc(NS(=O)(=O)c2cccc(OC3CCC(C(=O)O)CC3)n2)ccc1C(F)(F)F (centres unmarked) [Example 342, 4-((6-(N-(6-(o-tolyl)-5-(trifluoromethyl)pyridin-2-yl)sulfamoyl)pyridin-2-yl)oxy)cyclohexanecarboxylic Acid]
5 | 81.5 | 2.6 | 1190 | – | Cc1ccccc1-c1nc(NS(=O)(=O)c2cccc(N3CCN(CC(F)(F)F)CC3)n2)ccc1C(F)(F)F [Example 186, N-(6-(o-tolyl)-5-(trifluoromethyl)pyridin-2-yl)-6-(4-(2,2,2-trifluoroethyl)piperazin-1-yl)pyridine-2-sulfonamide]
6 | 84.0 | 4.75 | 1110 | 521 | Cc1ccccc1-c1nc(NS(=O)(=O)c2cccc(N3CCC[C@@H](C(=O)O)C3)n2)ccc1C(F)(F)F [Example 332, (3R)-1-(6-{[6-(2-methylphenyl)-5-(trifluoromethyl)pyridin-2-yl]sulfamoyl}pyridin-2-yl)piperidine-3-carboxylic Acid]
7 | 80.9 | 23.3 | 2980 | 298 | Cc1ccccc1-c1nc(NS(=O)(=O)c2cccc(N3C[C@@H]4C[C@H]3CN4)n2)ccc1C(F)(F)F [Example 203, 6-((1S,4S)-2,5-diazabicyclo[2.2.1]heptan-2-yl)-N-(6-(o-tolyl)-5-(trifluoromethyl)pyridin-2-yl)pyridine-2-sulfonamide hydrochloride]

Continued, molecule first:

Row | Structure (SMILES) | MTECC24 CFHBEC- Amax % [1] [%] | EC50 [1] [nM] | EC50 [2] [nM] | Emax [2] [%]
8 | O=C(O)[C@@H]1CCCN(c2cccc(S(=O)(=O)Nc3ccc(C(F)(F)F)c(-c4ccccc4C4CCC4)n3)n2)C1 [Example 366, (R)-1-(6-(N-(6-(2-cyclobutylphenyl)-5-(trifluoromethyl)pyridin-2-yl)sulfamoyl)pyridin-2-yl)piperidine-3-carboxylic Acid] | 66.9 | 0.797 | 1340 | –
9 | Cc1c(F)cccc1-c1nc(NS(=O)(=O)c2cccc(N3CCNCC3)n2)ccc1C(F)(F)F [Example 151, N-(6-(3-Fluoro-2-Methylphenyl)-5-(Trifluoromethyl)Pyridin-2-yl)-6-(Piperazin-1-yl)Pyridine-2-Sulfonamide Hydrochloride] | 75.3 | 95.6 | 3690 | 187
10 | Cc1c(C#N)cccc1-c1nc(NS(=O)(=O)c2cccc(N3CC(C)(O)C3)n2)ccc1C(F)(F)F [Example 308, N-(6-(3-cyano-2-methylphenyl)-5-(trifluoromethyl)pyridin-2-yl)-6-(3-hydroxy-3-methylazetidin-1-yl)pyridine-2-sulfonamide] | 60.7 | 207 | 3750 | 233
11 | Cc1ccc(F)cc1-c1nc(NS(=O)(=O)c2cccc(N3CC(O)C3)n2)ccc1Cl [Example 234, N-(5-chloro-6-(5-fluoro-2-methylphenyl)pyridin-2-yl)-6-(3-hydroxyazetidin-1-yl)pyridine-2-sulfonamide] | 84.0 | 11.3 | 1930 | 513
12 | O=S(=O)(Nc1ccc(C(F)(F)F)c(-c2cccc(F)c2Cl)n1)c1cccc(N2CC(O)C2)n1 [Example 230, N-(6-(2-chloro-3-fluorophenyl)-5-(trifluoromethyl)pyridin-2-yl)-6-(3-hydroxyazetidin-1-yl)pyridine-2-sulfonamide] | 60.6 | 21.1 | 2940 | 513
13 | Cc1cccc(C)c1-c1nc(NS(=O)(=O)c2cccc(O[C@@H]3CO[C@H](CO)C3)n2)ccc1Cl [Example 288, N-[5-chloro-6-(2,6-dimethylphenyl)pyridin-2-yl]-6-{[(3S,5S)-5-(hydroxymethyl)oxolan-3-yl]oxy}pyridine-2-sulfonamide] | 69.5 | 34.1 | 1710 | 495
14 | Cc1ccc(F)cc1-c1nc(NS(=O)(=O)c2cccc(N3CC(O)C3)n2)ccc1C(F)(F)F [Example 220, N-(6-(5-fluoro-2-methylphenyl)-5-(trifluoromethyl)pyridin-2-yl)-6-(3-hydroxyazetidin-1-yl)pyridine-2-sulfonamide] | 58.6 | 3.2 | 1610 | 902
15 | Cc1cc(F)ccc1-c1nc(NS(=O)(=O)c2cccc(N3CC(C)(O)C3)n2)ccc1C(F)(F)F [Example 217, N-(6-(4-fluoro-2-methylphenyl)-5-(trifluoromethyl)pyridin-2-yl)-6-(3-hydroxy-3-methylazetidin-1-yl)pyridine-2-sulfonamide] | 66.3 | 38 | 308 | 157
16 | O=S(=O)(Nc1ccc(C(F)(F)F)c(-c2ccc(F)cc2Cl)n1)c1cccc(N2CC(O)C2)n1 [Example 225, N-(6-(2-chloro-4-fluorophenyl)-5-(trifluoromethyl)pyridin-2-yl)-6-(3-hydroxyazetidin-1-yl)pyridine-2-sulfonamide] | 87.7 | 17.6 | 2740 | 361
